According to patent US20170188607A1, “SOLUBILIZATION OF A SWEET MODULATOR AND FLAVOR” (Firmenich SA, priority 2014, published 2017):

Assay: Amount of compound remaining in solution in acidic syrup kept at 3° C., measured by UV spectroscopy as a function of time
Type: physicochemical
Description: A concentrated solution 1 of (S)-1-(3-(((4-amino-2,2-dioxido-1H-benzo[c][1,2,6]thiadiazin-5-yl)oxy)methyl)piperidin-1-yl)-3-methylbutan-1-one at 0.3% (w/w) (3000 ppm) was prepared in water. pH was adjusted to 11 using NaOH to form (S)-1-(3-(((4-amino-2,2-dioxido-1H-benzo[c][1,2,6]thiadiazin-5-yl)oxy)methyl)piperidin-1-yl)-3-methylbutan-1-one sodium salt and obtain an homogeneous solution. Next, a syrup was prepared by mixing an aqueous solution of High Fructose Corn Syrup (HFCS), citric acid and deionized water. The final syrup contained 34% fructose, 0.68% citric acid, 0.1% sodium citrate and 65.22% water, with a pH of 2. […] The sample was kept at 3° C. and the amount of (S)-1-(3-(((4-amino-2,2-dioxido-1H-benzo[c][1,2,6]thiadiazin-5-yl)oxy)methyl)piperidin-1-yl)-3-methylbutan-1-one was measured by UV spectroscopy as a function of time. The amount of (S)-1-(3-(((4-amino-2,2-dioxido-1H-benzo[c][1,2,6]thiadiazin-5-yl)oxy)methyl)piperidin-1-yl)-3-methylbutan-1-one was reduced to 28 ppm after 1 week and first crystals were visually observed. After 12 weeks 1.7 ppm of (S)-1-(3-(((4-amino-2,2-dioxido-1H-benzo[c][1,2,6]thiadiazin-5-yl)oxy)methyl)piperidin-1-yl)-3-methylbutan-1-one remained in solution.
(§1) A concentrated solution 1 of (S)-1-(3-(((4-amino-2,2-dioxido-1H-benzo[c][1,2,6]thiadiazin-5-yl)oxy)methyl)piperidin-1-yl)-3-methylbutan-1-one at 0.3% (w/w) (3000 ppm) was prepared in water. pH was adjusted to 11 using NaOH to form (S)-1-(3-(((4-amino-2,2-dioxido-1H-benzo[c][1,2,6]thiadiazin-5-yl)oxy)methyl)piperidin-1-yl)-3-methylbutan-1-one sodium salt and obtain an homogeneous solution. Next, a syrup was prepared by mixing an aqueous solution of HFCS, citric acid, PVP 55k and deionized water. The final syrup contained 34% fructose, 0.68% citric acid, 0.1% sodium citrate, 0.03% PVP and 65.19% water. […] The sample was kept at 3° C. and the amount of (S)-1-(3-(((4-amino-2,2-dioxido-1H-benzo[c][1,2,6]thiadiazin-5-yl)oxy)methyl)piperidin-1-yl)-3-methylbutan-1-one was measured by UV spectroscopy as a function of time. The amount of (S)-1-(3-(((4-amino-2,2-dioxido-1H-benzo[c][1,2,6]thiadiazin-5-yl)oxy)methyl)piperidin-1-yl)-3-methylbutan-1-one was maintained at 30 ppm for 4 weeks, before a slight decrease and appearance of few crystals. After 12 weeks 9.6 ppm of (S)-1-(3-(((4-amino-2,2-dioxido-1H-benzo[c][1,2,6]thiadiazin-5-yl)oxy)methyl)piperidin-1-yl)-3-methylbutan-1-one remained in solution.
as §1, with “PVP 55k, maltodextrin (18DE)” for “PVP 55k”, “fructose, 15% maltodextrin,” for “fructose,”, “for 8” for “for 4”, “crystals.” for “crystals. After 12 weeks 9.6 ppm of (S)-1-(3-(((4-amino-2,2-dioxido-1H-benzo[c][1,2,6]thiadiazin-5-yl)oxy)methyl)piperidin-1-yl)-3-methylbutan-1-one remained in solution.”
A concentrated solution 1 of (S)-1-(3-(((4-amino-2,2-dioxido-1H-benzo[c][1,2,6]thiadiazin-5-yl)oxy)methyl)piperidin-1-yl)-3-methylbutan-1-one at 0.3% (w/w) (3000 ppm) was prepared in water. pH was adjusted to 11 using NaOH to form (S)-1-(3-(((4-amino-2,2-dioxido-1H-benzo[c][1,2,6]thiadiazin-5-yl)oxy)methyl)piperidin-1-yl)-3-methylbutan-1-one sodium salt and obtain an homogeneous solution. […]

- amount remaining in solution (Example 1 (comparative): 30 ppm start, syrup 34 Brix (34% fructose, 0.68% citric acid, 0.1% sodium citrate), pH 2, no polymer, 3° C., after 1 week, first crystals visually observed): 28 ppm
- amount remaining in solution (Example 1 (comparative): 30 ppm start, syrup 34 Brix, pH 2, no polymer, 3° C., after 12 weeks): 1.7 ppm
- amount remaining in solution (Example 2: 30 ppm start, syrup 34 Brix with 0.03% PVP 55k, 3° C., after 12 weeks): 9.6 ppm
- amount maintained in solution (Example 2: 30 ppm start, syrup 34 Brix with 0.03% PVP 55k, 3° C., maintained for 4 weeks, then slight decrease and few crystals): 30 ppm
- amount remaining in solution (Example 3: 30 ppm start, syrup 34 Brix with 0.03% PVP 55k and 15% maltodextrin (18DE), 3° C., after 12 weeks): 27.3 ppm
- amount maintained in solution (Example 3: 30 ppm start, syrup 34 Brix with 0.03% PVP 55k and 15% maltodextrin (18DE), 3° C., maintained for 8 weeks, then slight decrease and few crystals): 30 ppm
- amount maintained in solution (Example 4: 30 ppm start, syrup 34 Brix with 0.03% HPMC (22 kDa), 3° C., maintained for 12 weeks): 30 ppm
- amount remaining in solution (Example 10 (comparative): 18 ppm start, syrup 45 Brix, pH 2, no polymer, 3° C., after 7 weeks, first crystals visually observed): 15.8 ppm
- amount remaining in solution (Example 10 (comparative): 18 ppm start, syrup 45 Brix, pH 2, no polymer, 3° C., after 14 weeks): 3.6 ppm
- amount maintained in solution (Example 11: 18 ppm start, syrup 45 Brix with 0.0009% HPMC (Methocel K99), pH 2, 3° C., maintained for 17 weeks): 18 ppm
- amount maintained in solution (Example 12: 18 ppm start, syrup 45 Brix with 0.0009% CMC, pH 2, 3° C., maintained for 16 weeks): 18 ppm
- amount remaining in solution (Example 13 (comparative): 18 ppm start, syrup 20 Brix, pH 2, no polymer, 3° C., after 3.5 weeks, crystals visually observed): 14 ppm
- amount remaining in solution (Example 13 (comparative): 18 ppm start, syrup 20 Brix, pH 2, no polymer, 3° C., after 18 weeks): 4 ppm
- amount maintained in solution (Example 14: 18 ppm start, syrup 20 Brix with 0.0009% HPMC (Methocel K99), pH 2, 3° C., maintained for 18 weeks): 18 ppm
SMILES: CC(C)CC(=O)N1CCC[C@H](COc2cccc3c2C(N)=NS(=O)(=O)N3)C1 [(S)-1-(3-(((4-amino-2,2-dioxido-1H-benzo[c][1,2,6]thiadiazin-5-yl)oxy)methyl)piperidin-1-yl)-3-methylbutan-1-one]
